Read-outs that look alike come from different tables or passages of the source.
Legend:
[1] = Equilibrium solubility in simulated intestinal fluid, dual level DoE, fasted arm; format: physicochemical; details: for statistical significance of DoE factor BS:PL on equilibrium solubility / statistical significance of DoE factor bile salt on equilibrium solubility / statistical significance of DoE factor cholesterol on equilibrium solubility / statistical significance of DoE factor lecithin on equilibrium solubility / statistical significance of DoE factor monoglyceride on equilibrium solubility / statistical significance of DoE factor pH on equilibrium solubility / statistical significance of DoE factor sodium oleate on equilibrium solubility: fasted, current study (Figure 3)
Excerpt: (§1) For each media parameter (bile salt, lecithin, sodium oleate, monoglyceride, cholesterol, pH and BS: PL ratio) lower and upper limit concentration values for fasted and fed states were defined, Table 1. Using Minitab 17.2.1 and a custom experimental design, a 1/16 of the full factorial DoE with the seven factors and two levels (lower and upper limits) was constructed (8 experiments around the upper and lower levels plus two center points) separately for the fasted and the fed states. These two tables were then applied as an input for a factorial custom design of experiment which combined the fasted and fed using all 20 data points to provide an overall analysis. The study therefore consists of three arms, two smaller (10 data point) fasted and fed arms, which are then merged into a larger (20 data point) combined arm.
(§2) When designing and analyzing the DoE, only a factor’s main effects and 2 way interactions have been considered and 3 way interactions or more were not included. For each DoE the magnitude for each factor’s effect on equilibrium solubility was determined by the standardized effect value for all of the individual factors and the significant 2-way interactions. This value was used to articulate whether these factors are increasing or decreasing drug solubility.
(§3) The solution was prepared by the addition of an excess amount (above the estimated solubility) of solid for each compound investigated to a centrifuge tube (15 mL Corning Centristar cap, polypropylene RNase/DNase free, nonpyrogenic) followed by the addition of each component of the simulated intestinal fluid media according to the run order generated by the DoE. After all of the media components were added, pH was adjusted to 5, 6, or 7 according to the run order using 0.1 M HCl or 0.1 M KOH and tubes were capped and placed on an orbital shaker (OS 5 basic Yellowline, IKA, Germany) for 1 h after which the pH was readjusted if required. The 20 different tubes were then shaken in a tube rotator for 24 h at 40 rpm at 37 °C to simulate intestinal fluid conditions. After 24 h, a 1 mL amount was taken from each of the 20 tubes and transferred to a 1.5 mL Eppendorf tube then centrifuged at 15 000 rpm for 5 min. Following centrifugation 0.5 mL of the supernatant solution was transferred to an HPLC vial to analyze drug solubility using HPLC (Table 4).

[2] = Equilibrium solubility in simulated intestinal fluid, dual level DoE, fed arm; format: physicochemical; details: fed, current study (Figure 3)
Excerpt: as §1, §2, §3

[3] = Equilibrium solubility in simulated intestinal fluid, dual level DoE, combined fasted and fed arm; format: physicochemical; details: for variability of equilibrium solubility: across DoE media, fasted or fed arm, Figures 1 and 2; for significant DoE factors influencing solubility: combined arm (seven possible factors per drug), significance ±2; for significant two way factor interactions on solubility: eight two way interactions, Figure 4
Excerpt: as §1, §2, §3

[4] = Statistical comparison of equilibrium solubility data sets (Mann-Whitney test / two-sample t-test); format: physicochemical; details: for statistical comparison of fasted against fed equilibrium solubility: current dual level DoE, where significant, fasted solubility lower than fed; for statistical comparison of dual level fasted with published fasted equilibrium solubility: current fasted arm vs published fasted DoE
Excerpt: The Kolmogorov normality test was used in Minitab to assess the normality distribution of each data set. A Mann–Whitney test was used to evaluate the median between two data sets (not normally distributed) and the two-sample t-test was used to evaluate the mean of two data sets (normally distributed).

[5] = parameters: method as in ref 13, Figure 2; details: fasted, published; Figure 2; cited from earlier work
[6] = parameters: method as in ref 14, Figure 2; details: fed, published; Figure 2; cited from earlier work
[7] = cited from earlier work

Structure (SMILES) | statistical significance of DoE factor BS:PL on equilibrium solubility [1] | statistical significance of DoE factor bile salt on equilibrium solubility [1] | statistical significance of DoE factor cholesterol on equilibrium solubility [1] | statistical significance of DoE factor lecithin on equilibrium solubility [1] | statistical significance of DoE factor monoglyceride on equilibrium solubility [1] | statistical significance of DoE factor pH on equilibrium solubility [1] | statistical significance of DoE factor sodium oleate on equilibrium solubility [1] | statistical significance of DoE factor BS:PL on equilibrium solubility [2] | statistical significance of DoE factor bile salt on equilibrium solubility [2] | statistical significance of DoE factor cholesterol on equilibrium solubility [2] | statistical significance of DoE factor lecithin on equilibrium solubility [2] | statistical significance of DoE factor monoglyceride on equilibrium solubility [2] | statistical significance of DoE factor pH on equilibrium solubility [2] | statistical significance of DoE factor sodium oleate on equilibrium solubility [2] | statistical comparison of fasted against fed equilibrium solubility [4] | statistical significance of DoE factor bile salt on equilibrium solubility [5] | statistical significance of DoE factor lecithin on equilibrium solubility [5] | statistical significance of DoE factor pH on equilibrium solubility [5] | statistical significance of DoE factor sodium oleate on equilibrium solubility [5] | statistical significance of DoE factor bile salt on equilibrium solubility [6] | other results
O=C1NC(=O)C(c2ccccc2)(c2ccccc2)N1 [phenytoin] | S ^d | NS ^e ^g | S ^d | NS ^e ^g | NS ^e | S ^d | S ^d | NS ^e | NS ^e ^g | NS ^e | NS ^e | NS ^e ^g | NS ^e ^g | NS ^e ^g | no statistically significant difference | S ^d ^g | S ^d ^g | S ^d | S ^d | S ^d ^g | direction of pH effect on solubility (standardized effect) ([1]; fasted and fed study arms, Figure 3): negative effect; direction of cholesterol effect on solubility (standardized effect) ([1]; fasted arm, Figure 3): significant negative solubility effect; variability of equilibrium solubility [3]: low solubility variability; significant DoE factors influencing solubility [3]: no significant factors; significant two way factor interactions on solubility ([3]; combined arm): significant interactions; statistical comparison of dual level fasted with published fasted equilibrium solubility [4]: significantly different; statistical comparison of dual level fed with published fed equilibrium solubility ([4]; current fed arm vs published fed DoE): significantly different; statistical significance of DoE factor lecithin on equilibrium solubility [6]: NS ^e; statistical significance of DoE factor monoglyceride on equilibrium solubility [6]: S ^d ^g; statistical significance of DoE factor pH on equilibrium solubility [6]: S ^d ^g; statistical significance of DoE factor sodium oleate on equilibrium solubility [6]: S ^d ^g; pKa ([7]; no reference given): 8.1
CC(C)(Sc1cc(C(C)(C)C)c(O)c(C(C)(C)C)c1)Sc1cc(C(C)(C)C)c(O)c(C(C)(C)C)c1 [probucol] | S ^d | NS ^e | NS ^e | NS ^e | NS ^e | NS ^e ^g | S ^d | NS ^e | NS ^e ^g | NS ^e | NS ^e ^g | NS ^e ^g | NS ^e ^g | S ^d ^g | no statistically significant difference | NS ^e | NS ^e | S ^d ^g | S ^d | S ^d ^g | variability of equilibrium solubility [3]: large variability; significant two way factor interactions on solubility ([3]; combined arm): significant interactions; statistical comparison of dual level fasted with published fasted equilibrium solubility [4]: significantly different; statistical significance of DoE factor lecithin on equilibrium solubility [6]: S ^d ^g; statistical significance of DoE factor monoglyceride on equilibrium solubility [6]: S ^d ^g; statistical significance of DoE factor pH on equilibrium solubility [6]: S ^d ^g
CN1CC(=O)N2[C@H](c3ccc4c(c3)OCO4)c3[nH]c4ccccc4c3C[C@@H]2C1=O [tadalafil] | NS ^e | NS ^e ^g | NS ^e | NS ^e ^g | NS ^e | NS ^e ^g | NS ^e ^g | NS ^e | NS ^e ^g | NS ^e | NS ^e | NS ^e | NS ^e | NS ^e ^g | significant difference | S ^d ^g | S ^d ^g | S ^d ^g | S ^d ^g | S ^d ^g | significant DoE factors influencing solubility ([1]; fasted and fed study arms together (14 possible values per drug), significance ±4): no significant factors; significance of sodium oleate for solubility ([3]; combined arm, Figure 4, significance ±2, positive solubility impact): significant; statistical comparison of dual level fasted with published fasted equilibrium solubility [4]: significantly different; statistical significance of DoE factor lecithin on equilibrium solubility [6]: NS ^e; statistical significance of DoE factor monoglyceride on equilibrium solubility [6]: NS ^e; statistical significance of DoE factor pH on equilibrium solubility [6]: NS ^e; statistical significance of DoE factor sodium oleate on equilibrium solubility [6]: S ^d ^g; pKa ([7]; reported): 15
COc1cc(C(=O)NS(=O)(=O)c2ccccc2C)ccc1Cc1cn(C)c2ccc(NC(=O)OC3CCCC3)cc12 [zafirlukast] | NS ^e | NS ^e ^g | S ^d | NS ^e ^g | S ^d | S ^d | NS ^e ^g | NS ^e | NS ^e ^g | NS ^e | NS ^e | NS ^e | NS ^e ^g | NS ^e | significant difference | S ^d ^g | S ^d ^g | S ^d | S ^d ^g | S ^d ^g | direction of cholesterol effect on solubility (standardized effect) ([1]; fasted arm, Figure 3): positive effect; direction of monoglyceride effect on solubility (standardized effect) ([1]; fasted arm, Figure 3): negative effect; significant DoE factors influencing solubility [3]: no significant factors; significant two way factor interactions on solubility ([3]; combined arm): significant interactions; statistical significance of DoE factor lecithin on equilibrium solubility [6]: NS ^e; statistical significance of DoE factor monoglyceride on equilibrium solubility [6]: NS ^e; statistical significance of DoE factor pH on equilibrium solubility [6]: S ^d ^g; pKa ([7]; reported): 4

Reference: paper PMC5735376, “Dual Level Statistical Investigation of Equilibrium Solubility in Simulated Fasted and Fed Intestinal Fluid” (Molecular Pharmaceutics, 2017)
